The numbers were not newly measured in patent US6750064B2, “Methods of screening for possible solid forms” (S.S.C.I. Inc., priority 2000, dated 2004), which cites them from elsewhere.

For the series the following is noted: two hours after the drug was administered.

Turning to `CO[C@@H]1[C@@H](OC(N)=O)[C@@H](O)[C@H](Oc2ccc3c(O)c(NC(=O)c4ccc(O)c(CC=C(C)C)c4)c(=O)oc3c2C)OC1(C)C` [crystalline novobiocin, novobiocin], the “concentration of novobiocin in dog plasma” value is on record as “no drug detectable”. `CO[C@@H]1[C@@H](OC(N)=O)[C@@H](O)[C@H](Oc2ccc3c(O)c(NC(=O)c4ccc(O)c(CC=C(C)C)c4)c(=O)oc3c2C)OC1(C)C` [novobiocin amorphous form, novobiocin]: the concentration of novobiocin in dog plasma is 29300 ng/mL.
